# Measured values: ChEMBL document CHEMBL3217424, “Total synthesis and anti-cholinesterase activity of marine-derived bis-indole alkaloid fascaplysin” (Medchemcomm, 2012)
# Activity calls are given as the source filed them. No cut-off for these calls is given here.
# How the values were obtained:
# [1] = biological target: Acetylcholinesterase (Homo sapiens) (UniProt P22303); assay: Ratio of physostigmine IC50 to compound IC50 for acetylcholinesterase (unknown origin)
# [2] = biological target: Acetylcholinesterase (Electrophorus electricus) (UniProt O42275); assay: Inhibition of Electrophorus electricus AChE using acetylthiocholine iodide as substrate at 10 uM after 30 mins by Ellman's method
# Acetylcholinesterase [3] = biological target: T1, Acetylcholinesterase (Electrophorus electricus, UniProt O42275); assay: Inhibition of Electrophorus electricus AChE using acetylthiocholine iodide as substrate after 30 mins by Ellman's method
# Cholinesterase [4] = biological target: T2, Cholinesterase (Equus caballus, UniProt P81908); assay: Inhibition of equine serum BuChE using S-butyrylthiocholine iodide as substrate after 30 mins by Ellman's method
# Cholinesterase [5] = biological target: T2, Cholinesterase; assay: Non-competitive inhibition of equine serum BuChE using S-butyrylthiocholine iodide as substrate by Lineweaver-Burk reciprocal plot analysis
# [6] = biological target: Cyclin-dependent kinase 2/cyclin E1 (Homo sapiens, UniProt P24941); assay: Inhibition of CDK2/cyclin-E (unknown origin); type: protein-complex assay
# [7] = biological target: Cyclin-dependent kinase 4/cyclin D2 (Homo sapiens, UniProt P11802+P30279); assay: Inhibition of CDK4/cyclin-D2 (unknown origin); type: protein-complex assay
# Acetylcholinesterase [8] = biological target: T1, Acetylcholinesterase; assay: Non-competitive inhibition of Electrophorus electricus AChE using acetylthiocholine iodide as substrate by Lineweaver-Burk reciprocal plot analysis
# [9] = biological target: Cyclin-dependent kinase 1/cyclin B1 (Homo sapiens, UniProt P06493); assay: Inhibition of CDK1/cyclin-B (unknown origin); type: protein-complex assay
# [10] = biological target: Cyclin-dependent kinase 5/CDK5 activator 1 (Homo sapiens, UniProt Q00535); assay: Inhibition of CDK5/p-35 (unknown origin); type: protein-complex assay
# CDK6/cyclin D2 = CDK6/cyclin D2 (Homo sapiens, UniProt P30279+Q00534); assay: Inhibition of CDK6/cyclin-D2 (unknown origin); type: protein-complex assay
# CDK4/Cyclin D3 = CDK4/Cyclin D3 (Homo sapiens, UniProt P11802); assay: Inhibition of CDK4/cyclin-D3 (unknown origin); type: protein-complex assay
# Chain of CDK4/Cyclin D3 (P11802 whole entry): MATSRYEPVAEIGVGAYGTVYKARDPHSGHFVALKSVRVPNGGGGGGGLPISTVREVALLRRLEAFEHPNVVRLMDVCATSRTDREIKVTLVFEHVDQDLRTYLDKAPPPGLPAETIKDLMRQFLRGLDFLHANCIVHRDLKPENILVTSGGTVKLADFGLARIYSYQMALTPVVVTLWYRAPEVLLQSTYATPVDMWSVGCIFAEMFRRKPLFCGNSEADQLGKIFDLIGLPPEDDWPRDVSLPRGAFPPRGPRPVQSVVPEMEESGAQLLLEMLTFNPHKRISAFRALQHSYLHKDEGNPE
# Chain of CDK4/Cyclin D3 (P30281 whole entry, further chain): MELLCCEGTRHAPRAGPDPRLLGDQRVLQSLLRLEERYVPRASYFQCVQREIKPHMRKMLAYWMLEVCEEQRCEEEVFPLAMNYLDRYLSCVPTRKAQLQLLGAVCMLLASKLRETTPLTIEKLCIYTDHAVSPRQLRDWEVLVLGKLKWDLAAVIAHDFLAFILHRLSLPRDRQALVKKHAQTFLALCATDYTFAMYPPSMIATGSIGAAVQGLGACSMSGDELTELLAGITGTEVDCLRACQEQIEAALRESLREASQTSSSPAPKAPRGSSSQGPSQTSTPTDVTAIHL
# T2 sequence (P81908 whole entry): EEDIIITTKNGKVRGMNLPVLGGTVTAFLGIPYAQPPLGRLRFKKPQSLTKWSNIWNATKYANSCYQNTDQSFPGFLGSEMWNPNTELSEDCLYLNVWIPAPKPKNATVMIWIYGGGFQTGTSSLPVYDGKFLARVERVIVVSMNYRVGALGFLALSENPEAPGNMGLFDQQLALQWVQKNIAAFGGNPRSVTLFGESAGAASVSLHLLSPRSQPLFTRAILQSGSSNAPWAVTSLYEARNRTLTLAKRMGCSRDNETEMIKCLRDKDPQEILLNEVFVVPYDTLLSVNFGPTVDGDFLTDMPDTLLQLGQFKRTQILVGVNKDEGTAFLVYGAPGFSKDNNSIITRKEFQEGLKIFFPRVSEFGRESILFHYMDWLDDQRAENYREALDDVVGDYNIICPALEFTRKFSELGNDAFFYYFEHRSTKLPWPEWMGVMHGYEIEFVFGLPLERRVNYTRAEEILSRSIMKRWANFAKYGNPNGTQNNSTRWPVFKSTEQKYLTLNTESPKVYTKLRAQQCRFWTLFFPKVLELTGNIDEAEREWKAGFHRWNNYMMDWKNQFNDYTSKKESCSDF
# Chain of Acetylcholinesterase (Electrophorus electricus) (O42275 24-633 limits assumed): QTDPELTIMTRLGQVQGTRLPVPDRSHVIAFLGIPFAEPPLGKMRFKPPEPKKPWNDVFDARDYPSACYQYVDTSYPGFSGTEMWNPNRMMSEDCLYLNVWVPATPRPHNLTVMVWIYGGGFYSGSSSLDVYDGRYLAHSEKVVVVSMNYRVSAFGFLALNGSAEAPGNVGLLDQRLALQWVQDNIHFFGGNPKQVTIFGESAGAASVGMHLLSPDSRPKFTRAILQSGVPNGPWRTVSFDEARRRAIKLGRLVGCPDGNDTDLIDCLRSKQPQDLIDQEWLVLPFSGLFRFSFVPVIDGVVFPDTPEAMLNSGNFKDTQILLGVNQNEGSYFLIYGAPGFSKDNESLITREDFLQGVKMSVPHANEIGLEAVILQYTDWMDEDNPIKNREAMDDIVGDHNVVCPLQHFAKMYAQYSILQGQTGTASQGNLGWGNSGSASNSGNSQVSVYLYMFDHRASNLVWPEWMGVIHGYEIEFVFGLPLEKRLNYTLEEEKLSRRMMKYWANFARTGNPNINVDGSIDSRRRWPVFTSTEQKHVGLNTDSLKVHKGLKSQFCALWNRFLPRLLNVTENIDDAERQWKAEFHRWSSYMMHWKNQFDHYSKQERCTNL
# T1 sequence (O42275 whole entry): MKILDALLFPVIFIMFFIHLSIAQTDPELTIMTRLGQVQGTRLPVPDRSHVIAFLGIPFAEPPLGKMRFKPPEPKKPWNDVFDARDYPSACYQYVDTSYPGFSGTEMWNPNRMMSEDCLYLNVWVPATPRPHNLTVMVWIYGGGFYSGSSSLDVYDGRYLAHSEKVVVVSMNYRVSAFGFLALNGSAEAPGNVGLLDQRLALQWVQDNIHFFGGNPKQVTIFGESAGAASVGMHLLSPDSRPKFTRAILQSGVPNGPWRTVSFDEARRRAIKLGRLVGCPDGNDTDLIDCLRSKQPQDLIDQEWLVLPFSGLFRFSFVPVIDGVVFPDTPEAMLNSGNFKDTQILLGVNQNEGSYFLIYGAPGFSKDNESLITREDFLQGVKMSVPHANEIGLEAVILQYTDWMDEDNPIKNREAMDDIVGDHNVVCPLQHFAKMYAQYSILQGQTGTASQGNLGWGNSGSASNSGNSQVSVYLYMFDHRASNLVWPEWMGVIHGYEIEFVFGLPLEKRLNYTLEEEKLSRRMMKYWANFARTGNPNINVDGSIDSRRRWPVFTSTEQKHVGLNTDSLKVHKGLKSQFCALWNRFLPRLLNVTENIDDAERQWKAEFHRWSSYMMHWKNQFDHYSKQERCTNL
# Chain of Cyclin-dependent kinase 4/cyclin D2 (P11802 whole entry): as the sequence (P11802 whole entry) above
# Chain of Cyclin-dependent kinase 4/cyclin D2 (P30279 whole entry): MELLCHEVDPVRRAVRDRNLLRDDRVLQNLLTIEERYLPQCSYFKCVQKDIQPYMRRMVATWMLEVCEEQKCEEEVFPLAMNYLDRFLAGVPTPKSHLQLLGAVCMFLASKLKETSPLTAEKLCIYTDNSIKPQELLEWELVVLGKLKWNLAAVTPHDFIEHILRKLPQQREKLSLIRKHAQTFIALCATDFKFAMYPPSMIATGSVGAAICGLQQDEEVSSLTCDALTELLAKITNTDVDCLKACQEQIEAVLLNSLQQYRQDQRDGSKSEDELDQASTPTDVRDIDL
# Chain of Acetylcholinesterase (Homo sapiens) (P22303 whole entry): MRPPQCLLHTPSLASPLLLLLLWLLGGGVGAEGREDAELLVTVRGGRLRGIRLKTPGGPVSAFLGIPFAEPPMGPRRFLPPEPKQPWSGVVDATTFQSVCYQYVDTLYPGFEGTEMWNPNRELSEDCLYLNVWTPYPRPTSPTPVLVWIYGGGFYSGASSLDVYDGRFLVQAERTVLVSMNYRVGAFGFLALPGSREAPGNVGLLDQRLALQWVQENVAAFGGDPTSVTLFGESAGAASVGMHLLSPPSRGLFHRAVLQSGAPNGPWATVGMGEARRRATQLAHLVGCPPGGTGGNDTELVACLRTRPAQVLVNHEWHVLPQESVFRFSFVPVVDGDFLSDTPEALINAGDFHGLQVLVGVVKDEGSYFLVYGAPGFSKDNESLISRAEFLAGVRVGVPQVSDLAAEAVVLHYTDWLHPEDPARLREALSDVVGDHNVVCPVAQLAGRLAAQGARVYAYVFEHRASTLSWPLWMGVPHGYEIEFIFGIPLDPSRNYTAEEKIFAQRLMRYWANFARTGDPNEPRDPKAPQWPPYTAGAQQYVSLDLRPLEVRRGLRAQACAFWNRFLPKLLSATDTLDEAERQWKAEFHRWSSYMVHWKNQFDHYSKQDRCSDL
# Chain of Cyclin-dependent kinase 1/cyclin B1 (P06493 whole entry): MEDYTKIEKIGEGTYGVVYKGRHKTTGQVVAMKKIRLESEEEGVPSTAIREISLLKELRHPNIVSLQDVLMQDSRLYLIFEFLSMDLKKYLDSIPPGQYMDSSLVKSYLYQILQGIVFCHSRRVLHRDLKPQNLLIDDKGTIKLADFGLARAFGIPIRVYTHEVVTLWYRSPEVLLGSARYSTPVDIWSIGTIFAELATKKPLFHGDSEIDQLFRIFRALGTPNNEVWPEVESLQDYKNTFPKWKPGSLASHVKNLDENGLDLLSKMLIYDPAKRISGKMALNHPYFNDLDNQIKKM
# Chain of Cyclin-dependent kinase 1/cyclin B1 (P14635 whole entry, further chain): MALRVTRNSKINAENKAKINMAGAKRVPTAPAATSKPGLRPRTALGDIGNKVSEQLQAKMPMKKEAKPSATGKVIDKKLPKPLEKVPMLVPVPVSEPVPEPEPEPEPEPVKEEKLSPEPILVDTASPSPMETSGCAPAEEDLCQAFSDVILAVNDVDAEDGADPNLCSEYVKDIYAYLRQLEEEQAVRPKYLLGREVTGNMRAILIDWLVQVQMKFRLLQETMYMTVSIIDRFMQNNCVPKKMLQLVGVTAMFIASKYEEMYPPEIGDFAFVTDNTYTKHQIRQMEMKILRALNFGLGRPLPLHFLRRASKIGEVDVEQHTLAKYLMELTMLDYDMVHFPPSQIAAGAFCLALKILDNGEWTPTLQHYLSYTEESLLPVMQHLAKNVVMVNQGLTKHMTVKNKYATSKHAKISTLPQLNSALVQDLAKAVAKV
# Chain of Cyclin-dependent kinase 5/CDK5 activator 1 (Q00535 whole entry): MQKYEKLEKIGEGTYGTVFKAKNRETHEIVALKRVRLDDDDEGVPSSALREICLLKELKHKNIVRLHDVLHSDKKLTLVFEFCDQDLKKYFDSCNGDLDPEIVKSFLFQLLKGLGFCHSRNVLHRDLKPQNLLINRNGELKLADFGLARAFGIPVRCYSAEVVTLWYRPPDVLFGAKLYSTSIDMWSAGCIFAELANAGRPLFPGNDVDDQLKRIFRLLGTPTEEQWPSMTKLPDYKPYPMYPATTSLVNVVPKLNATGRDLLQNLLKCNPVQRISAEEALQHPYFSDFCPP
# Chain of Cyclin-dependent kinase 5/CDK5 activator 1 (Q15078 whole entry, further chain): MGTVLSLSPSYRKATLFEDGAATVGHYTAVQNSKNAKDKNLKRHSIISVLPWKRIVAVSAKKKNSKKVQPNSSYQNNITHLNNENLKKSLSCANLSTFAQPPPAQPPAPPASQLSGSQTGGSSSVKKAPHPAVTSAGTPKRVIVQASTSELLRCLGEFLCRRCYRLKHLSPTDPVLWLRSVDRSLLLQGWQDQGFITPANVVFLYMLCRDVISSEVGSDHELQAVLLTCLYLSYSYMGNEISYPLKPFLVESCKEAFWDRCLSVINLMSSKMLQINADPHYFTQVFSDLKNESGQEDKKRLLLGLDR
structure (smiles),measurement,setting,value
COC(=O)C1=CO[C@@H](C)[C@H]2C[n+]3ccc4c([nH]c5ccccc54)c3C[C@H]12,Ratio IC50,[1],10
O=C(c1ccccc1Cl)c1nccc2c1[nH]c1ccccc12,inhibition,[2],inactive
O=C1c2ccccc2-[n+]2ccc3c([nH]c4ccccc43)c21 [FASCAPLYSIN],IC50,Acetylcholinesterase [3],1.49 µM
same,IC50,Cholinesterase [4],90.5 µM
same,Ki,Cholinesterase [5],48.5 µM
same,IC50,[6],> 50 µM
same,IC50,[7],> 100 µM
same,Ki,Acetylcholinesterase [8],2.28 µM
same,IC50,[9],> 100 µM
same,inhibition,[2],86%
same,IC50,[10],20 µM
same,IC50,CDK6/cyclin D2,> 50 µM
same,IC50,CDK4/Cyclin D3,> 100 µM
